What was measured:
Format in all cases: biochemical
[1] = target: T1, LpxH (UDP-2,3-diacylglucosamine pyrophosphatase) (Escherichia coli, UniProt P43341); assay: AaLpxE-coupled malachite green assay, residual activity at […]
[2] = target: T1, LpxH (UDP-2,3-diacylglucosamine pyrophosphatase); assay: as above; remark: listed apart in the source
[3] = target: T1, LpxH (UDP-2,3-diacylglucosamine pyrophosphatase); assay: AaLpxE-coupled malachite green assay, dose-response

T1 sequence (P43341 whole entry): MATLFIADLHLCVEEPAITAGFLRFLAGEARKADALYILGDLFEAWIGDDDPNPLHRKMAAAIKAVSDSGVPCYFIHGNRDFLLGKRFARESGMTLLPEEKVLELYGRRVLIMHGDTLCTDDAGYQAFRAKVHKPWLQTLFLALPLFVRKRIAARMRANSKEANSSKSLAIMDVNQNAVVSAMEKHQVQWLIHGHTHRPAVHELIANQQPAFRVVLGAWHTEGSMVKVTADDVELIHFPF

Structure (SMILES) | 10 μM compound / Percentage Activity [2] | 1 μM compound / Percentage Activity [1] | other results
CC(=O)N1CCc2cc(S(=O)(=O)N3CCN(c4cccc(Br)c4)CC3)ccc21 [3a, JH-LPH-06] | – | – | activity at 1 µM ([1]; read-out: 1 μM compound / Percentage Activity): 26 ± 8%
CC(=O)N1CCc2cc(S(=O)(=O)N3CCN(c4ccccc4)CC3)ccc21 [3b, JH-LPH-09] | 32 ± 9 | – | –
CCc1cccc(N2CCN(S(=O)(=O)c3ccc4c(c3)CCN4C(C)=O)CC2)c1 [3c, JH-LPH-24] | 21 ± 2 | – | –
CC(=O)N1CCc2cc(S(=O)(=O)N3CCN(c4cccc(C(C)C)c4)CC3)ccc21 [3d, JH-LPH-26] | 29 ± 3 | – | –
CC(=O)N1CCc2cc(S(=O)(=O)N3CCN(c4cccc(-c5ccccc5)c4)CC3)ccc21 [3e, JH-LPH-25] | – | 45 ± 10 | –
COC(=O)CCC(=O)N1CCc2cc(S(=O)(=O)N3CCN(c4cccc(Br)c4)CC3)ccc21 [22a, JH-LPH-07] | – | 53 ± 11 | –
O=C(O)CCC(=O)N1CCc2cc(S(=O)(=O)N3CCN(c4cccc(Br)c4)CC3)ccc21 [22b, JH-LPH-08] | – | 52 ± 11 | –
CC(=O)N1CCc2cc(S(=O)(=O)N3CCN(c4cccc(C(F)(F)F)c4)CC3)ccc21 [AZ1] | – | – | IC50 [3]: 147 ± 2 nM
CC(=O)Nc1ccc(S(=O)(=O)N2CCN(c3cccc(C(F)(F)F)c3)CC2)cc1 [compound 11, JH-LPH-15] | – | – | activity at 10 µM ([2]; read-out: 10 μM compound / Percentage Activity): 30 ± 11%

Source: paper PMC6730544 (ACS infectious diseases, 2019)
